Reference: publication PMC4725965, “Comprehensive Structural Characterization of the Bacterial Homospermidine Synthase–an Essential Enzyme of the Polyamine Metabolism” (Scientific Reports, 2016)
One block for each molecule: values may come before it.

How the values were obtained:
BvHSS [1] = target: T1, BvHSS (Blastochloris viridis, UniProt O32323); test: X-ray crystallography; format: biochemical; settings: DAP co-crystal soaked 300 s with 0.2 M PUT; product formed in crystal; pH 4.8; active site, subunit A; transition-close state with partial Schiff base, modelled as 37Z
T1 construct: gene hss; full-length BvHSS from pETM14, E. coli BL21 (DE3); N-terminal 6xHis-tag cut with HRV3C protease; homodimer; active site within one subunit; domains cover residues 3-477; first four amino acids not traced
T1 sequence (O32323 1-477): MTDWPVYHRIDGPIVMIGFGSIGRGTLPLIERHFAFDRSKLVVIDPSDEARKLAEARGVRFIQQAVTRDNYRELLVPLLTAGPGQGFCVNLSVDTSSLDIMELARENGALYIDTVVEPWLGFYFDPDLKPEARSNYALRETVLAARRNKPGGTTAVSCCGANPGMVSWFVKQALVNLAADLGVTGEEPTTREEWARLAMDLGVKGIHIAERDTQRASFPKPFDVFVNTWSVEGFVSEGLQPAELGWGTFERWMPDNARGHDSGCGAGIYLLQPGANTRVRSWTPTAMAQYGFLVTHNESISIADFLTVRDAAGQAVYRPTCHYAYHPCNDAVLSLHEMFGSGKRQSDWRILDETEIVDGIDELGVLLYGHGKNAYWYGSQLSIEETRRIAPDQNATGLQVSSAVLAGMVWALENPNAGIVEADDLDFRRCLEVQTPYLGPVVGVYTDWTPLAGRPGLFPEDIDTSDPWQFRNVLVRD

[2] = target: Blastochloris viridis homospermidine synthase (Blastochloris viridis) (UniProt O32323); test: crystal structure; hanging-drop vapour diffusion at 18 °C, reservoir 100 mM sodium acetate pH 4.6-4.8; NAD+ bound, with or without polyamines; two subunits (A and B) in the asymmetric unit
BvHSS [3] = target: T1, BvHSS; test: X-ray crystallography; format: binding
BvHSS [4] = target: T2, BvHSS (Blastochloris viridis, UniProt O32323, H296S); test: X-ray crystallography; format: binding; settings: pH 4.6
T2 construct: gene hss; full-length BvHSS from pETM14, E. coli BL21 (DE3); N-terminal 6xHis-tag cut with HRV3C protease; homodimer; active site within one subunit; domains cover residues 3-477; first four amino acids not traced

BvHSS [5] = target: T3, BvHSS (Blastochloris viridis, UniProt O32323, E237Q); test: X-ray crystallography; format: binding; settings: co-crystal with 0.2 M AGM and 0.2 M PUT; no polyamine in active site; pH 4.6
T3 construct: gene hss; full-length BvHSS from pETM14, E. coli BL21 (DE3); N-terminal 6xHis-tag cut with HRV3C protease; homodimer; active site within one subunit; domains cover residues 3-477; first four amino acids not traced
T3 sequence (O32323 whole entry E237Q, the tested form may be a part): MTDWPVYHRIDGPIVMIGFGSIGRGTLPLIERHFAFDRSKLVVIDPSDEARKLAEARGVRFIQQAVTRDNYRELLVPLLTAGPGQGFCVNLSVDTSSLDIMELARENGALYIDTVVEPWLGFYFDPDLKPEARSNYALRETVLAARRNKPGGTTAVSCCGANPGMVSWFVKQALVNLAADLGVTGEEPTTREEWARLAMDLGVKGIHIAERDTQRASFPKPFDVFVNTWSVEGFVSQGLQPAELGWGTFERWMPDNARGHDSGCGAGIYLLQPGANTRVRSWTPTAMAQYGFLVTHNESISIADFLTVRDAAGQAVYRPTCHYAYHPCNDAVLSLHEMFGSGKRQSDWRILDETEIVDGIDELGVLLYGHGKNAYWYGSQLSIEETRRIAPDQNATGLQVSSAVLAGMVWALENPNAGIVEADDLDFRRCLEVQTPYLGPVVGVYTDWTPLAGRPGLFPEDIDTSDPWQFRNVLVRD

T2 sequence (O32323 whole entry H296S, the tested form may be a part): as the sequence (O32323 whole entry E237Q, the tested form may be a part) above, with Q237E, H296S counted along it

Molecule: NCCCCNCCCCN [sym-homospermidine, bis(4-aminobutyl)amine]
X-ray crystallography (BvHSS [1]): transition close state of the reduction to HSP bound in subunit A

stoichiometry N [2]: 2
Molecule: Blastochloris viridis homospermidine synthase (from UniProt O32323 1-477) (enzyme)

Molecule: NCCCN [1,3-diaminopropane]
X-ray crystallography (BvHSS [3]; co-crystal with 0.2 M DAP and 0.2 M PUT, NAD+ bound, pH 4.6, active site, second DAP at the ionic slide (pocket entrance), Table 3 misprints the PDB id as 4XQE): Two DAP molecules were found at two different positions in subunit A (PDB ID: 4XQC)

Molecule: N=C(N)NCCCCN [agmatine]
X-ray crystallography (BvHSS [4]; co-crystal with 0.2 M AGM, NAD+ bound, active site): the variant H296S was found to bind AGM within the active site

Molecule: NC(=O)c1ccc[n+]([C@@H]2O[C@H](COP(=O)(O)OP(=O)(O)OC[C@H]3O[C@@H](n4cnc5c(N)ncnc54)[C@H](O)[C@@H]3O)[C@@H](O)[C@H]2O)c1 [NAD^+]
X-ray crystallography (BvHSS [4]; co-crystal with 0.2 M AGM): BvHSS and BvHSS variants with bound NAD^+ in complex with various polyamines
X-ray crystallography (BvHSS [3]; no polyamine, pH 4.6, non-covalently bound prosthetic group): with bound NAD^+ (Protein Data Bank [PDB] ID: 4PLP)
X-ray crystallography (BvHSS [5]): BvHSS and BvHSS variants with bound NAD^+ in complex with various polyamines

Molecule: NCCCCN [putrescine]
X-ray crystallography (BvHSS [4]; AGM co-crystal soaked 300 s with 0.2 M PUT, NAD+ bound, active site, partial occupancy beside AGM, enzymatically inactive variant): partial replacement of AGM with PUT (Fig. 6f)
X-ray crystallography (BvHSS [3]; DAP co-crystal soaked 300 s with 0.2 M PUT, NAD+ bound, pH 4.8, inner binding site, subunit B, transition-close state): The active site of BvHSS with bound PUT (PDB ID: 4TVB, subunit B)
